According to the supplement of paper PMC8633005:

How the values were obtained:
Experiment in all cases: drug sensitivity score (DSS) (DSS (unitless, 0-50 scale)); higher = more sensitive (stronger viability inhibition); extreme values may be limits of the assay
Conditions in all cases: 72 h; culture: 2D
FM-MEL-6 = system: FM-MEL-6
In short: (§1)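 A 527-compound oncology library was screened in 384-well plates against melanoma cell lines and patient-derived melanoma cultures grown in 2D, the cultures at 1000–1500 cells per well. Each compound, in DMSO or water, was applied at five concentrations over a 10,000-fold range and incubated for 72 h at 37 °C before CellTiter-Glo luminescence readout of viability. A drug sensitivity score, a modified area-under-curve measure, was calculated from curves fitted in the in-house Breeze software.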

Bowes = system: Bowes
In short: as §1

SK-MEL-2 = system: SK-MEL-2
In short: as §1

SK-MEL-28 = system: SK-MEL-28
In short: as §1

WM852 = system: WM852
In short: as §1

FM-MEL-2 = system: FM-MEL-2
In short: as §1

WM165 = system: WM165
In short: as §1

FM-MEL-3 = system: FM-MEL-3
In short: as §1

Structure (SMILES)	drug sensitivity score (FM-MEL-6)	drug sensitivity score (Bowes)	drug sensitivity score (SK-MEL-2)	drug sensitivity score (SK-MEL-28)	drug sensitivity score (WM852)	drug sensitivity score (FM-MEL-2)	drug sensitivity score (WM165)	drug sensitivity score (FM-MEL-3)
Nc1nc(NC2CC2)cc(-c2cccc(Cl)c2Cl)n1 [TH588]	0	0	0	0	4.3	0	0.9	2.2
O=C(NOCCO)c1ccc2cncn2c1Nc1ccc(I)cc1F [GDC-0623]	6.2	1.4	16.8	8.9	2.4	16.5	7.6	8.9
COc1cc2c(cc1-c1c(C)noc1C)ncc1[nH]c(=O)n([C@H](C)c3ccccn3)c12 [I-BET151]	5	4.6	0.3	3.1	0	5.2	8.7	4.7
CC[C@H](CO)Nc1nc(NCc2ccccc2)c2ncn(C(C)C)c2n1 [Seliciclib]	0	2.6	0	0	0	0.8	1.7	0
CNC(=O)c1cc(Oc2ccc(NC(=O)Nc3ccc(Cl)c(C(F)(F)F)c3)cc2)ccn1 [Sorafenib]	0	0	0	0	0	1	0	1.4
Nc1ncnc2c1nc(N)n2[C@@H]1O[C@H](CO)[C@@H](O)[C@H]1O [8-amino-adenosine]	20.5	16.3	20.9	22.6	18.1	19.4	23.2	18.5
CCCc1cc(C)[nH]c(=O)c1CNC(=O)c1cc(-c2ccnc(N3CCN(C)CC3)c2)cc2c1cnn2C(C)C [GSK343]	0	0	0.1	0	0	0.1	0	0.2
CC/C(=C(\c1ccc(O)cc1)c1ccc(OCCN(C)C)cc1)c1ccccc1 [4-hydroxytamoxifen]	7.8	0	2.8	4.5	7.9	6.6	3.9	7.4
CN(Cc1cnc2nc(N)nc(N)c2n1)c1ccc(C(=O)N[C@@H](CCC(=O)O)C(=O)O)cc1 [Methotrexate]	0	27.7	0	9	0	0	14.4	0
CCc1cnn2c(NCc3ccc[n+]([O-])c3)cc(N3CCCC[C@H]3CCO)nc12 [Dinaciclib]	21.7	30.7	21.2	20.2	20	13.1	22.4	18.5
NCCNc1ccc(NCCN)c2c1C(=O)c1ccncc1C2=O [Pixantrone]	0.8	4.8	0	0	1.3	0	0.7	0
